These results are taken from ChEMBL document CHEMBL6096664, “Discovery of novel KSP-targeting PROTACs with potent antitumor effects in vitro and in vivo” (Eur J Med Chem, 2025).

Usually IC50 stands for the concentration at which inhibition is half-maximal. One may read the Emax as the size of the effect at its maximum, as opposed to the concentration needed.

Series [1] concerns the target T1, Protein cereblon/Kinesin-like protein KIF11 (Homo sapiens, UniProt P52732+Q96SW2). The series can be described thus: PROTAC activity at CRBN/KSP in human HCT-116 cells assessed as induction of KSP degradation at 500 nM incubated for 48 hrs by Western blot analysis relative to control. Type of series: cell-based. In general terms: In western blotting, separated proteins are transferred to a membrane and probed.

In series [2] the test system is HCT-116. The series can be described thus: Antiproliferative activity against human HCT-116 cells assessed as inhibition of cell proliferation measured after 72 hrs by CCK8 assay. As to conditions: HCT-116, 72 h; call rule not given here. Type of series: functional, cell-based. On the technique in general: Tetrazolium assays rely on reduction of a dye to a coloured formazan, in cell work by metabolically active cells.

Series [3] has as its target T1, Protein cereblon/Kinesin-like protein KIF11. The series can be described thus: PROTAC activity at CRBN/KSP in human HCT-116 cells assessed as induction of KSP degradation by measuring maximal efficacy incubated for 48 hrs by Western blot analysis relative to control. It counts as cell-based.
For series [4] the target is unchanged. The series can be described thus: PROTAC activity at CRBN/KSP in human HCT-116 cells assessed as reduction of KSP protein level at 200 nM by Western blot analysis. It counts as cell-based. Conditions: time 6-48 hrs.
For series [5] the target is unchanged. The series can be described thus: PROTAC activity at CRBN/KSP in human HCT-116 cells assessed as induction of KSP degradation at 200 nM pretreated with MG-132 for 2 hrs followed by compound addition for 24 hrs by Western blot analysis. Type of series: cell-based.
Series [6] shares this target. The series can be described thus: PROTAC activity at CRBN/KSP in human HCT-116 cells assessed as induction of KSP degradation at 200 nM pretreated with MLN4924 for 2 hrs followed by compound addition for 24 hrs by Western blot analysis. Type of series: cell-based.
A further series relates to MCF7. The series can be described thus: Antiproliferative activity against human MCF7 cells assessed as inhibition of cell proliferation measured after 72 hrs by CCK8 assay. It counts as functional, cell-based. As to conditions: MCF7, 72 h.
The test system of series [7] is HCT-116. The series can be described thus: Induction of apoptosis in human HCT-116 cells assessed as viable cells at 100 nM incubated for 48 hrs by Annexin V-FITC/PI staining based flow cytometry analysis (reference value: 94.31 %). It counts as functional. Conditions: read-out: Activity. On the technique in general: Flow cytometry measures light scatter and fluorescence of single cells or particles in a stream.

For series [8], the system named is HCT-116. The series can be described thus: Induction of apoptosis in human HCT-116 cells assessed as early apoptotic cells at 100 nM incubated for 48 hrs by Annexin V-FITC/PI staining based flow cytometry analysis (reference value: 3.02 %). Type of series: functional.
Series [9] has as its system HCT-116. The series can be described thus: Induction of apoptosis in human HCT-116 cells assessed as late apoptotic cells at 100 nM incubated for 48 hrs by Annexin V-FITC/PI staining based flow cytometry analysis (reference value: 1.36 %). Type of series: functional.
The subject of series [10] is HCT-116. The series can be described thus: Induction of apoptosis in human HCT-116 cells assessed as necrotic cells at 100 nM incubated for 48 hrs by Annexin V-FITC/PI staining based flow cytometry analysis (reference value: 1.31 %). Type of series: functional.
The subject of series [11] is HCT-116. The series can be described thus: Induction of apoptosis in human HCT-116 cells assessed as early apoptotic cells at 10 nM incubated for 48 hrs by Annexin V-FITC/PI staining based flow cytometry analysis (reference value: 3.02 %). It counts as functional.
Series [12] concerns HCT-116. The series can be described thus: Induction of apoptosis in human HCT-116 cells assessed as late apoptotic cells at 10 nM incubated for 48 hrs by Annexin V-FITC/PI staining based flow cytometry analysis (reference value: 1.36 %). Type of series: functional.
Series [13] relates to HCT-116. The series can be described thus: Induction of cell cycle arrest in human HCT-116 cells assessed as accumulation of cells at G1 phase at 10 nM incubated for 24 hrs by RNase A/propidium iodide staining based flow cytometric analysis (reference value: 93.11 %). Type of series: functional.
The test system of series [14] is HCT-116. The series can be described thus: Induction of cell cycle arrest in human HCT-116 cells assessed as accumulation of cells at S phase at 10 nM incubated for 24 hrs by RNase A/propidium iodide staining based flow cytometric analysis (reference value: 2.84 %). It counts as functional.
Series [15] has as its system HCT-116. The series can be described thus: Induction of cell cycle arrest in human HCT-116 cells assessed as accumulation of cells at G2/M phase at 10 nM incubated for 24 hrs by RNase A/propidium iodide staining based flow cytometric analysis (reference value: 4.05 %). Type of series: functional.
Series [16] deals with HCT-116. The series can be described thus: Induction of cell cycle arrest in human HCT-116 cells assessed as accumulation of cells at G1 phase at 100 nM incubated for 24 hrs by RNase A/propidium iodide staining based flow cytometric analysis (reference value: 93.11 %). Type of series: functional.
For series [17], the system named is HCT-116. The series can be described thus: Induction of cell cycle arrest in human HCT-116 cells assessed as accumulation of cells at S phase at 100 nM incubated for 24 hrs by RNase A/propidium iodide staining based flow cytometric analysis (reference value: 2.84 %). Type of series: functional.
For series [18], the system named is HCT-116. The series can be described thus: Induction of cell cycle arrest in human HCT-116 cells assessed as accumulation of cells at G2/M phase at 100 nM incubated for 24 hrs by RNase A/propidium iodide staining based flow cytometric analysis (reference value: 4.05 %). It counts as functional.
Series [19] relates to HCT-116. The series can be described thus: Antitumor activity against human HCT-116 cells xenografted in female BALB/c nu/nu mouse assessed as reduction in tumor volume at 7.5 mg/kg, ip measured every 2 days for 14 days relative to control. As to conditions: time 14 day. On the set-up: scale not given: the % may be the effect or the level left. It counts as functional.
For series [20], the system named is HCT-116. The series can be described thus: Antitumor activity against human HCT-116 cells xenografted in female BALB/c nu/nu mouse assessed as reduction in tumor weight at 7.5 mg/kg, ip measured every 2 days for 14 days relative to control. As to conditions: time 14 day. Type of series: functional. On the set-up: scale not given: the % may be the effect or the level left.

The nature of series [21]: Toxicity in female BALB/c nu/nu nude mouse xenografted with human HCT-116 cells assessed as body weight loss at 7.5 to 15 mg/kg, ip measured every 2 days for 14 days. Type of series: organism-based. As to conditions: in vivo, 336 h, dose 7.5-15 mg/kg, time 14 day.

T1 sequence (P52732 whole entry, looked up): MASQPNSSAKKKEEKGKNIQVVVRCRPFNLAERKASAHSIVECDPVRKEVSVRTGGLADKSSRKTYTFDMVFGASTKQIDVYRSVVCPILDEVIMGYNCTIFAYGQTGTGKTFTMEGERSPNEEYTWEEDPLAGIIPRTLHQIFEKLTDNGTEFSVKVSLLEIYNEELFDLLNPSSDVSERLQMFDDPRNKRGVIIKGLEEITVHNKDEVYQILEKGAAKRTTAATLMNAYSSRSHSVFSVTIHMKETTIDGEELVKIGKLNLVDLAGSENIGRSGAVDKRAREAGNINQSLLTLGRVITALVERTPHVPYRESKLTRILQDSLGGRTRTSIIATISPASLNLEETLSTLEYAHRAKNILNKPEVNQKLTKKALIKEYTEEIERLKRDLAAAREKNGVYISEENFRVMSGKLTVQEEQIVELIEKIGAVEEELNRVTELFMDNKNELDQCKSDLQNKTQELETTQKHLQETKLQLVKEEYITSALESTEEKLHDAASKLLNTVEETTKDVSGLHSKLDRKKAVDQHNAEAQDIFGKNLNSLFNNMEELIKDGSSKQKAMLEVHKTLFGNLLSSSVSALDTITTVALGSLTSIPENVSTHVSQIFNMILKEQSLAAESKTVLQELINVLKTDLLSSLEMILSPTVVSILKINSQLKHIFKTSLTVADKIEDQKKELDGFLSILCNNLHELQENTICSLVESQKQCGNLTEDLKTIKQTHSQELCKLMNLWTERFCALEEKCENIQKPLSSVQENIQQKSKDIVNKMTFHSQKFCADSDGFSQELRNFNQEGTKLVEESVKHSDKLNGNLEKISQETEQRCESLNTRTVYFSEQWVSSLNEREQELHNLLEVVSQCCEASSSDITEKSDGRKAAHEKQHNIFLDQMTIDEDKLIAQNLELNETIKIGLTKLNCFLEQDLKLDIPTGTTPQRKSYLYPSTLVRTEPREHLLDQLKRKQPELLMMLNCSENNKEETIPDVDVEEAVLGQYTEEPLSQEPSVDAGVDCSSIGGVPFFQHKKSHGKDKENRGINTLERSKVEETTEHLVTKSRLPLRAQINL
T1 sequence (Q96SW2 whole entry, looked up): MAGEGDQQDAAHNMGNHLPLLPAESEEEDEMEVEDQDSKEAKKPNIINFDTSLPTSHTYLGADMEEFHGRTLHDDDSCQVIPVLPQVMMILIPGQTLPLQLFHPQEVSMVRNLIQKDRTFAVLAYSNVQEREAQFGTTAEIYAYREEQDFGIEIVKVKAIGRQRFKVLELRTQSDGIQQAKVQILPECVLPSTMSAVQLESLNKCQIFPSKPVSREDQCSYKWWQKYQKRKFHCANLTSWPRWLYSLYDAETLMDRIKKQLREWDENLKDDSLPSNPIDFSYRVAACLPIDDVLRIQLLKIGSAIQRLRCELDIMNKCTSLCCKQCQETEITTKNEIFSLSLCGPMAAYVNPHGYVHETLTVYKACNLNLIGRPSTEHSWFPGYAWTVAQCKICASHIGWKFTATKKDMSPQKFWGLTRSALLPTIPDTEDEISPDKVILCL

Turning to `COc1ccc(C2(SC[C@H](N)C(=O)NCCCCCCCCNC(=O)COc3cccc4c3C(=O)N(C3CCC(=O)NC3=O)C4=O)c3ccccc3C=Cc3ccccc32)cc1` (some centres not stated), the Activity is 82.1% in [1]; “Time-dependent-effect; Considerable Ksp Degradation Noticed Within 6 Hrs” in series [4]; “Not active; Compound Induced Ksp Degradation In Mediated Through Ubiquitin-Proteosome System” in [5]; “Not active; Compound Induced Ksp Degradation In Mediated Through Ubiquitin-Proteosome System” in series [6]; 30.35% with HCT-116 [8]; 25.55% with HCT-116 [9]. In addition, the Activity was found to be 14.98% in the series with HCT-116 [10]; 13.51% with HCT-116 [11]; 14.96% in the series with HCT-116 [12]; 75.34% in the series with HCT-116 [13]; 9.87% in the series on HCT-116 [14]; 14.79% in the series on HCT-116 [15]. Besides, the Activity in the series on HCT-116 [16] was 9.98%; in the series with HCT-116 [17] it was 14.97%; with HCT-116 [18], 75.05%; with HCT-116 [19], 91%; with HCT-116 [20], 97%; in series [21] it was “Non-toxic”. For the same compound, the results for the IC50 in the series on HCT-116 [2] and in the series with MCF7 were 0.0102 µM and 0.424 µM, respectively. Besides, in series [3], the Emax was 90%. Besides, the viability at 0.1 µM with HCT-116 [7] came out at 29.1%.
